≈ marks a conversion by molar mass, not a printed value. Where two headings read alike, the source gives them in different places.
Legend:
P. aeruginosa ATCC 9027 = experiment: Antibacterial activity, pre-exposure; type: cell-based, Pseudomonas aeruginosa; conditions: for Average inhibition %, biofilms viability / Average inhibition %, planktonic cells viability / inhibition at 50 µM / inhibition at 100 µM / inhibition at 150 µM / inhibition at 200 µM: P. aeruginosa ATCC 9027, pre-exposure, ± SD; for inhibition at 50 µM / inhibition at 100 µM / inhibition at 150 µM / inhibition at 200 µM: Pseudomonas aeruginosa, ATCC9027
Protocol: (§1) The antimicrobial activity was assessed in a similar way for the initial screening and the dose–response evaluation against different bacterial strains. With the exception of the post-exposure experiment, the compounds were added to the wells along with the bacteria to test the ability of compounds to prevent bacterial growth and biofilm formation (pre-exposure). The compounds were diluted in DMSO and plated directly in 96-well plates before adding the bacterial culture, and plates were incubated for 18 h under aerobic conditions at 37 °C with shaking (220 rpm). The antibacterial activity of the compounds was assessed on planktonic cells and biofilms separately using two different measurements for each: optical density (turbidity) and resazurin reduction (viability) on planktonic cells and resazurin followed by a crystal violet staining assay (total biomass) on biofilms, as described in the following sections.
(§2) The resazurin staining was performed according to the protocol previously optimized with a few modifications.[46] Briefly, the planktonic solution was first transferred into a new 96-well plate and the OD of the planktonic solution was measured using a Varioskan LUX Multimode microplate reader (Thermo Scientific, Vantaa, Finland). Then, 10 μL of a 400 μM resazurin (R7017, Sigma-Aldrich, St. Louis, MO) diluted in phosphate-buffered saline (PBS) (Thermo Fisher Scientific, MA) was added to the wells (for a final resazurin concentration of 20 μM). The plate was incubated in the dark with shaking (220 rpm) for about 3–10 min at room temperature with S. aureus and A. baumannii (until the bacteria controls turned pink) or for 20 min at 37 °C with P. aeruginosa. Fluorescence was measured at λex = 560 nm and λem = 590 nm using the top optics of the Varioskan LUX Multimode microplate reader. The planktonic plate was then discarded. The original challenge plate containing the biofilms was washed once with PBS, and 200 μL of a 20 μM resazurin solution was added to the wells. The plate was incubated in the dark at 37 °C with shaking (220 rpm) for 30 min with S. aureus, 60 min with A. baumannii, and 90 min with P. aeruginosa. Fluorescence was measured as described for the planktonic solution. The biofilms were next treated with crystal violet staining.
(§3) After removing the resazurin solution from the plate, biofilms were fixed with ethanol 100% for 15 min at room temperature. Ethanol was then removed, and the biofilms were left to air-dry completely at RT. Crystal violet, diluted to 1:100 in deionized water from the 2.3% commercial solution (HT90132, Sigma-Aldrich, St. Louis, MO), was added to the wells and, after a 5 min incubation with the dye, the biofilms were washed twice with deionized water and left to air-dry for about 10 min. The dye was solubilized in ethanol 100% for 1 h, and absorbance was measured at 595 nm using a Multiskan Sky microplate spectrophotometer (Thermo Scientific, Vantaa, Finland).

S. aureus ATCC 25923 [1] = experiment: Antibacterial activity, post-exposure on preformed 18-h-old biofilms; type: cell-based, Staphylococcus aureus; conditions: ± SD; for inhibition at 25 µM / inhibition at 50 µM / inhibition at 100 µM / inhibition at 200 µM: Staphylococcus aureus; for inhibition at 25 µM: ATCC25923, 25 µM; for inhibition at 50 µM: ATCC25923, 50 µM; for inhibition at 100 µM: ATCC25923, 100 µM; for inhibition at 200 µM: ATCC25923, 200 µM
Protocol: For the post-exposure experiment, bacteria were grown with no compounds in the same conditions for 18 h, after which the media was changed, and compounds were added on the preformed biofilms. The plates were then incubated in the same conditions for an additional 24 h before proceeding to the staining assays.
as §2, §3

A. baumannii NCTC 13423 = experiment: Antibacterial activity, pre-exposure; type: cell-based, Acinetobacter baumannii; conditions: for Average inhibition %, biofilms viability / Average inhibition %, planktonic cells viability / inhibition at 10 µM / inhibition at 15 µM / inhibition at 25 µM / inhibition at 50 µM: A. baumannii NCTC 13423, pre-exposure, ± SD; for inhibition at 10 µM / inhibition at 15 µM / inhibition at 25 µM / inhibition at 50 µM: Acinetobacter baumannii, NCTC13423
Protocol: as §1, §2, §3

S. aureus ATCC 25923 [2] = experiment: Antibacterial activity, pre-exposure (planktonic cells and biofilm formation); type: cell-based, Staphylococcus aureus; conditions: for MIC / inhibition at 5 µM / inhibition at 10 µM / inhibition at 15 µM / inhibition at 25 µM: Staphylococcus aureus, ATCC25923; for inhibition at 5 µM / inhibition at 10 µM / inhibition at 15 µM / inhibition at 25 µM / Average inhibition %, biofilms viability / Average inhibition %, planktonic cells viability: pre-exposure, ± SD
Protocol: as §1, §2, §3

[3] = 50 µM, read-out: Average inhibition %, biofilms biomass
[4] = 50 µM, read-out: Average inhibition %, planktonic cells turbidity
[5] = read-out: Average inhibition %, biofilms biomass
[6] = read-out: Average inhibition %, planktonic cells turbidity
[7] = 10 µM, read-out: Average inhibition %, biofilms biomass
[8] = 10 µM, read-out: Average inhibition %, planktonic cells turbidity
[9] = 15 µM, read-out: Average inhibition %, biofilms biomass
[10] = 15 µM, read-out: Average inhibition %, planktonic cells turbidity
[11] = 25 µM, read-out: Average inhibition %, biofilms biomass
[12] = 25 µM, read-out: Average inhibition %, planktonic cells turbidity

CCCCCCCCCCc1ccc(CCC(N)(CO)CO)cc1 [Compound 11, 2-Amino-2-(4-decylphenethyl)propane-1,3-diol]
Average inhibition %, biofilms viability (P. aeruginosa ATCC 9027; 50 µM): 0 ± 0%
Average inhibition %, planktonic cells viability (P. aeruginosa ATCC 9027; 50 µM): 26.2 ± 4.1%
Average inhibition %, biofilms viability (P. aeruginosa ATCC 9027; 100 µM): 0 ± 0%
Average inhibition %, planktonic cells viability (P. aeruginosa ATCC 9027; 100 µM): 6.4 ± 11.1%
Average inhibition %, biofilms viability (P. aeruginosa ATCC 9027; 150 µM): 0 ± 0%
Average inhibition %, planktonic cells viability (P. aeruginosa ATCC 9027; 150 µM): 10.3 ± 9.3%
Average inhibition %, biofilms viability (P. aeruginosa ATCC 9027; 200 µM): 0 ± 0%
Average inhibition %, planktonic cells viability (P. aeruginosa ATCC 9027; 200 µM): 1.2 ± 2%
inhibition at 50 µM (P. aeruginosa ATCC 9027; [3]): 8.3 ± 5.9%
inhibition at 50 µM (P. aeruginosa ATCC 9027; [4]): 22.2 ± 20.1%
inhibition at 100 µM (P. aeruginosa ATCC 9027; 100 µM, read-out: Average inhibition %, biofilms biomass): 13 ± 13.3%
inhibition at 100 µM (P. aeruginosa ATCC 9027; 100 µM, read-out: Average inhibition %, planktonic cells turbidity): 20.4 ± 17.1%
inhibition at 150 µM (P. aeruginosa ATCC 9027; 150 µM, read-out: Average inhibition %, biofilms biomass): 12.1 ± 11.1%
inhibition at 150 µM (P. aeruginosa ATCC 9027; 150 µM, read-out: Average inhibition %, planktonic cells turbidity): 7.6 ± 5.1%
inhibition at 200 µM (P. aeruginosa ATCC 9027; 200 µM, read-out: Average inhibition %, biofilms biomass): 3.1 ± 4.2%
inhibition at 200 µM (P. aeruginosa ATCC 9027; 200 µM, read-out: Average inhibition %, planktonic cells turbidity): 13.4 ± 11.7%
MIC P. aeruginosa ATCC 9027 (P. aeruginosa ATCC 9027; pre-exposure, Inactive = no activity up to 200 μM, > = some inhibition but no MIC reached): Inactive
Average inhibition %, biofilms viability (S. aureus ATCC 25923 [1]; 25 µM): 10.2 ± 8.5%
Average inhibition %, planktonic cells viability (S. aureus ATCC 25923 [1]; 25 µM): 0 ± 0%
Average inhibition %, biofilms viability (S. aureus ATCC 25923 [1]; 50 µM): 17.5 ± 9%
Average inhibition %, planktonic cells viability (S. aureus ATCC 25923 [1]; 50 µM): 0 ± 0%
Average inhibition %, biofilms viability (S. aureus ATCC 25923 [1]; 100 µM): 24.8 ± 10.2%
Average inhibition %, planktonic cells viability (S. aureus ATCC 25923 [1]; 100 µM): 6 ± 10.4%
Average inhibition %, biofilms viability (S. aureus ATCC 25923 [1]; 200 µM): 25.8 ± 8.3%
Average inhibition %, planktonic cells viability (S. aureus ATCC 25923 [1]; 200 µM): 30.5 ± 9.5%
inhibition at 25 µM (S. aureus ATCC 25923 [1]; [5]): 32.6 ± 5.1%
inhibition at 25 µM (S. aureus ATCC 25923 [1]; [6]): 8.9 ± 8.2%
inhibition at 50 µM (S. aureus ATCC 25923 [1]; [5]): 35.4 ± 2.7%
inhibition at 50 µM (S. aureus ATCC 25923 [1]; [6]): 14 ± 4.2%
inhibition at 100 µM (S. aureus ATCC 25923 [1]; [5]): 48.9 ± 4.7%
inhibition at 100 µM (S. aureus ATCC 25923 [1]; [6]): 16.2 ± 8.6%
inhibition at 200 µM (S. aureus ATCC 25923 [1]; [5]): 47.6 ± 7.1%
inhibition at 200 µM (S. aureus ATCC 25923 [1]; [6]): 22.2 ± 12.7%
Average inhibition %, biofilms viability (A. baumannii NCTC 13423; 10 µM): 0 ± 0%
Average inhibition %, planktonic cells viability (A. baumannii NCTC 13423; 10 µM): 11.8 ± 6%
Average inhibition %, biofilms viability (A. baumannii NCTC 13423; 15 µM): 0.8 ± 1.4%
Average inhibition %, planktonic cells viability (A. baumannii NCTC 13423; 15 µM): 13.2 ± 6.7%
Average inhibition %, biofilms viability (A. baumannii NCTC 13423; 25 µM): 3.6 ± 5.6%
Average inhibition %, planktonic cells viability (A. baumannii NCTC 13423; 25 µM): 10.3 ± 9%
Average inhibition %, biofilms viability (A. baumannii NCTC 13423; 50 µM): 21.4 ± 1.1%
Average inhibition %, planktonic cells viability (A. baumannii NCTC 13423; 50 µM): 0.1 ± 0.1%
inhibition at 10 µM (A. baumannii NCTC 13423; [7]): 5.1 ± 8.9%
inhibition at 10 µM (A. baumannii NCTC 13423; [8]): 0%
inhibition at 15 µM (A. baumannii NCTC 13423; [9]): 0%
inhibition at 15 µM (A. baumannii NCTC 13423; [10]): 0%
inhibition at 25 µM (A. baumannii NCTC 13423; [11]): 5.1 ± 4.6%
inhibition at 25 µM (A. baumannii NCTC 13423; [12]): 0%
inhibition at 50 µM (A. baumannii NCTC 13423; [3]): 15.9 ± 13.8%
inhibition at 50 µM (A. baumannii NCTC 13423; [4]): 0%
MIC A. baumannii NCTC 13423 (A. baumannii NCTC 13423; pre-exposure, Inactive = no activity up to 50 μM, > = some inhibition but no MIC reached): Inactive ^d
Initial screening result (active = at least 60% inhibition of planktonic cells and biofilm formation) (S. aureus ATCC 25923 [2]; 50 μM, S. aureus): active
MIC (S. aureus ATCC 25923 [2]; lowest concentration with no visible growth (>90% inhibition of turbidity and viability of planktonic cells), 18 h, read-out: MIC S. aureus ATCC 25923): 10 to 15 µM (≈ 3.36 to 5.03 µg/mL)
inhibition at 5 µM (S. aureus ATCC 25923 [2]; 5 µM, read-out: Average inhibition %, biofilms biomass): 40.1 ± 36.6%
inhibition at 5 µM (S. aureus ATCC 25923 [2]; 5 µM, read-out: Average inhibition %, planktonic cells turbidity): 12.5 ± 12.4%
inhibition at 10 µM (S. aureus ATCC 25923 [2]; [7]): 75.6 ± 20.8%
inhibition at 10 µM (S. aureus ATCC 25923 [2]; [8]): 70.4 ± 40%
inhibition at 15 µM (S. aureus ATCC 25923 [2]; [9]): 87.1 ± 9.9%
inhibition at 15 µM (S. aureus ATCC 25923 [2]; [10]): 97.5 ± 1.9%
inhibition at 25 µM (S. aureus ATCC 25923 [2]; [11]): 89 ± 0.7%
inhibition at 25 µM (S. aureus ATCC 25923 [2]; [12]): 97.9 ± 1.2%
MIC (S. aureus ATCC 25923 [2]; read-out: MIC (S. aureus)): 10 to 15 µM (≈ 3.36 to 5.03 µg/mL)
Average inhibition %, biofilms viability (S. aureus ATCC 25923 [2]; 5 µM): 41.8 ± 9.7%
Average inhibition %, planktonic cells viability (S. aureus ATCC 25923 [2]; 5 µM): 17 ± 23.3%
Average inhibition %, biofilms viability (S. aureus ATCC 25923 [2]; 10 µM): 72.2 ± 23.8%
Average inhibition %, planktonic cells viability (S. aureus ATCC 25923 [2]; 10 µM): 73.3 ± 34.2%
Average inhibition %, biofilms viability (S. aureus ATCC 25923 [2]; 15 µM): 84.9 ± 24.9%
Average inhibition %, planktonic cells viability (S. aureus ATCC 25923 [2]; 15 µM): 98.5 ± 1.7%
Average inhibition %, biofilms viability (S. aureus ATCC 25923 [2]; 25 µM): 93.8 ± 10.1%
Average inhibition %, planktonic cells viability (S. aureus ATCC 25923 [2]; 25 µM): 99.2 ± 1.3%

Reference: article PMC8296573, “Synthesis and Biological Evaluation of Fingolimod Derivatives as Antibacterial Agents” (ACS Omega, 2021)
